Assay results from the OligoGym collection.
“And” between values parts separate entries of the source, which are not always exact repeats. Identical values can stand only once. These antisense oligonucleotides have a phosphorothioate backbone; sugars and methylation of C are not fully specified.

target: IL1R1; settings: ASO
Further: test concentration or dose not given here.

Sequence | remaining target (mRNA or protein) (fraction of control)
GAAACAAATAAGTCTGAGTA | 0.75
CCTCCAGGGCTGCGGCGGCT | 0.75
GCAAAGCGGGCCCAGGAGAA | 0.3
TGTGTCCTGCAATCGGTGGC | 0.1
AGTGCTACGGTGCGGGCGCG | 0.75
AGATGCCTTGCGTTGGCTGC | 0.5
TCGGCTCCTCCCGGCCGCGC | 0.75
CGCGCTCGGCTCCTCCCGGC | 0.75
TCTGAGTAACACTTTCAT | 0.75
CCTCCACCCACGCTTATCCA | 0.29
CCCTTGGGCTGTGGATGACT | 0.75
CACTGCAACCTCCGTCTCCC | 0.75
CATAACCTGGCCTGCAACGC | 0.75
TGGTGACCTCAGGGATAAAG | 0.75
CTTTCATATTCTTCTTGGAG | 0.75
GCGGGATGACAGAAGAGCGG | 0.75
AACTTCTCCATGCTACCCGA | 0.75
CTCTCCACCGAGGAGCAGGC | 0.75
CACCGAGGAGCAGGCGCGGC | 0.75

Sequence | remaining target (mRNA or protein) (fraction of control)
CGTGCCAGTGTGGAGTGAGG | 0.23
GCAACGCCATAAGACAGGAG | 0.75
CATTCCTGCCGCTCCCTGGG | 0.75
CATTCCATGAACTCTGCAAG | 0.75
GCCACCACAGCCTCTCCCTC | 0.42
TCTGGCATTTTCTCATAGTC | 0.75
AGGGCTGCGGCGGCTCCACT | 0.75
GGAACTGCCTTTCGCGGTCT | 0.75
TCTTCAGAGGGTGCGTCTAC | 0.75
CCCTTCCATAAATGAACAGC | 0.75
TACCCGAGAGGCACGTGAGC | 0.75
AGTCAAAGGAAGTTCACGGG | 0.5
CACTTAGCCGTGCGTTGGTG | 0.5
CTTGGAGAAGGCCTTGTCTT | 0.75
TGCCTTTCGCGGTCTCGCTC | 0.75
TGATCCGTGATGCATGCTGT | 0.5
AGTCCTCCGTCTCCTGCAAC | 0.75
AGTAACACTTTCATATTCTT | 0.75

target: ERBB2; settings: ASO

Sequence | remaining target (mRNA or protein) (fraction of control)
CTGGTTCACACTGGCACG | 0.4
CCGCCACTCCTGGTAGAT | ≥ 1

target: AKT2; settings: ASO

Sequence | remaining target (mRNA or protein) (fraction of control)
ATGACCTCCTTGGCATCG | 0.18
CTTGAGGCTGTTGGCGAC | 0.18
CAGTCGTGGAGGAGTCAC | 0.42
ACTGTGTGAGCGACTTCA | 0.38
CGTGCGTCCTCTGCGTGG | 0.14
CTTTGATGACAGACACCT | 0.23
GATGGACTGGGCGGTAAA | 0.22
ACTCCATCACAAAGCACA | 0.2
GCCTTGCTGACCGCCACT | 0.18
CAAGGAGTTTGAGATAGT | 0.36
CCAGCCTTCTTTGATGAC | 0.25
TGTGGAGCCAGCCTTCTT | 0.28
TTCCATCTCCTCAGTCGT | 0.19
GGGTGCCTGGTGTTCTGG | 0.3
ACCAGGATGACTTTGCCA | 0.25
CCCGCTCCTCTGTGAAGA | 0.08
TCGGTGACTGTGTGAGCG | 0.34
GTCTTGATGTATTCACCA | 0.52
TGGACAGGGCACAGTCTC | 0.3
GAGGCACCGTGGACAGGG | 0.33
TGACAGACACCTCATTCA | 0.15

target: SELE; settings: ASO

Sequence | remaining target (mRNA or protein) (fraction of control)
ACAGGATCTCTCAGGTGGGT | 0.2
CAGCCAAGAACAGCT | 0.5
TCACCCAAAGGTTTAGGCTTG | 0.1
GATGTGAAGTCAGCCAA | 0.51
GAAATACTTTCCTCCGTTTTG | ≥ 1
GAAATACTTTCCTGGGGAGAT | 0.81
GTATGGAAGATTATAATATAT | 0.59
CTGATTCAAGGCTTTGGCAG | 0.55
CTTTCCTGGGGAGATAAA | 0.96
GAGTTCTTTTCACCC | 0.63
CTGCTGCCTCTGTCTCAGGT | 0.07
CCAATCATGACTTCAAGAGTT | 0.32
ACCTCTGCTGTTCTGATCCT | 0.17
TGAAGTCAGCCAAGAACAGCT | 0.08
GAAGTCAGCCAAGAACAGCT | 0.5
ACCACACTGGTATTTCACAC | 0.67
CACAATCCTTAAGAACTCTTT | 0.31
CCAAAGTGAGAGCTGAGAGA | 0.36
TATAGGAGTTTTGATGTGAA | 0.74

Sequence | remaining target (mRNA or protein) (fraction of control)
GCATGTCACAGCTGTAACAAA | 0.5
CCCAAAGGTTTAGGCTTG | 0.61
GACAATATACAAACCTTCCAT | 0.65
ACGTTTGGCCTCATGGAAGT | 0.35
GTTTAAGGCAGCATCCTAAGA | 0.38
CTGTGAAGCAATCATGAC | 0.96
GGCTTGAAATACTTTCCT | 0.84
TCCTCTCTTCCAGAGCACCC | ≥ 1
GTTCACAACTGAAAAAGAAAC | 0.51
GGGCCAGAGACCCGAGGAGA | 0.46
CAATCATGACTTCAAGAGTTC | 0.77
AATCATGACTTCAAGAGTTCT | 0.78 and 0.53
CAGCCAAGAACAGCTGG | 0.62
CGTTCTGCACTTACCGTTTTG | 0.52
GGGGAGATAAAACACAAAATG | 0.79
TTCCCCAGATGCACCTGTTT | 0.02
GGAATGCAAAGCACATCCAT | 0.71
TGAAGCAATCATGACTTCAAG | ≥ 1 and 0.51
GACTTCAAGAGTTCT | 0.82
